These results are taken from PMC9858427, “Design, synthesis and biological evaluation of 2-((4-sulfamoylphenyl)amino)-pyrrolo[2,3-d]pyrimidine derivatives as CDK inhibitors” (Journal of Enzyme Inhibition and Medicinal Chemistry, 2023).

For one series, the system named is PANC-1. Put plainly: MTT proliferation assay in PANC-1 cells. The class given is cell-based. As to conditions: Homo sapiens, 72 h drug exposure. The protocol: (§1) The human pancreatic carcinoma MIA PaCa-2 was purchased from China Centre for Type Culture Collection, AsPC-1 and BxPC-3 cell Lines were purchased from Cell Centre of the Institute of Basic Medical Sciences, Chinese Academy of Medical Sciences and Peking Union Medical College. PANC-1 was kindly provided by Nankai Hospital (Tianjin, China). These cancer cell lines were cultured according to the manufacturer’s instruction.
(§2) Cells were planted in 96-well plates at a density of 3000–4000 cells per well and incubated at 37 °C in a humidified CO2 incubator for 24 h. Then 3-fold diluted concentrations of tested compound were added respectively which was dissolved by DMSO in the ratio of 1:1000. After indicated incubation period, MTT was added to each well and incubated for 4 h at 37 °C. Then, the supernatant was discarded gently, and the precipitate was dissolved in 100 µL of DMSO in each well. The absorbance (A) at 570 nm was detected with a microplate reader (Multiskan MK3; Thermo Fisher Scientific, MA, USA). Vehicle-treated cells were served as the control for the calculation of relative cell viability (%) of treated group at single concentration. IC50 value was calculated directly from the inhibition curve of serial dilution of test compound and was expressed as mean ± SD using the SPSS statistical software (SPSS17.0 Inc., Chicago, IL, USA).

Series [1] deals with T1, CDK7 (Homo sapiens, UniProt P50613). Put plainly: CDK7 kinase IC50, Mobility shift assay. The series is classed as biochemical. The protocol:
(§3) CDK kinase activity (IC50 values and inhibitory rate at single concentration) was measured using the kinase profiling services (Shanghai ChemPartner Co., Ltd). Compounds were sent to ChemPartner as a solution in DMSO at concentration of 10 mM.

A further series deals with BxPC-3. Put plainly: MTT proliferation assay in BxPC-3 cells. The class given is cell-based. Particulars: Homo sapiens, 72 h drug exposure. The protocol: as §1, §2
A general note: Formazan colour is commonly taken as a measure of viable cells.

For series [2], the system named is MIA PaCa-2 cells. Further details: method as in PMID 33316409. Particulars: previous study ref 23; cited from earlier work.
The target of series [3] is T2, CDK2 (Homo sapiens, UniProt P24941). Put plainly: CDK kinase screening at 1 μM, CDK2. The class given is biochemical. As to conditions: read-out: Inhibitory rate at 1μM: CDK2. The protocol: as §3
The target of series [4] is T3, CDK4 (Homo sapiens, UniProt P11802). Put plainly: CDK kinase screening at 1 μM, CDK4. The series is classed as biochemical. As to conditions: read-out: Inhibitory rate at 1μM: CDK4. The protocol: as §3
T3 sequence (P11802 whole entry): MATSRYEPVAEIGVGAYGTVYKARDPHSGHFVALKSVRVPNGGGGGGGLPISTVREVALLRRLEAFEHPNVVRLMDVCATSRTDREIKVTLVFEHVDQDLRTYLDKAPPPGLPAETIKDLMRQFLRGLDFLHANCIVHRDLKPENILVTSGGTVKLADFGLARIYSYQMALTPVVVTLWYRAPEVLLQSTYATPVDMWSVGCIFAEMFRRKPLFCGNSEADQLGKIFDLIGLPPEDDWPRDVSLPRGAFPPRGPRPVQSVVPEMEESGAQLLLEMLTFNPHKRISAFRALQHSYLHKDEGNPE
T3 sequence (P30281 whole entry partner): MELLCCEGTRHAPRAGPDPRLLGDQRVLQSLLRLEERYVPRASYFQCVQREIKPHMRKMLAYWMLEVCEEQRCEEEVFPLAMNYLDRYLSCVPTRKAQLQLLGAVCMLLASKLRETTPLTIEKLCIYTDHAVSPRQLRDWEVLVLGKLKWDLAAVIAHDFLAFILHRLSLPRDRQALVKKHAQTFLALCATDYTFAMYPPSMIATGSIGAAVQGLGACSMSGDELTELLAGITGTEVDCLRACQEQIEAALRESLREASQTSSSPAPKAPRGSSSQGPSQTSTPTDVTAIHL
The target in series [5] is T2, CDK2. Put plainly: CDK2 kinase IC50, Mobility shift assay. The series is classed as biochemical. The procedure:
as §3

The target in series [6] is T3, CDK4. Put plainly: CDK4 kinase IC50, Mobility shift assay. The class given is biochemical. The protocol:
as §3

The subject of a further series is AsPC-1. Put plainly: MTT proliferation assay in AsPC-1 cells. The class given is cell-based. As to conditions: Homo sapiens, ASPC1; 72 h drug exposure. The procedure:
as §1, §2

The target in series [7] is T4, CDK9 (Homo sapiens, UniProt P50750). Put plainly: CDK kinase screening at 1 μM, CDK9. The series is classed as biochemical. As to conditions: read-out: Inhibitory rate at 1μM: CDK9. The protocol: as §3
T4 sequence (P50750 whole entry): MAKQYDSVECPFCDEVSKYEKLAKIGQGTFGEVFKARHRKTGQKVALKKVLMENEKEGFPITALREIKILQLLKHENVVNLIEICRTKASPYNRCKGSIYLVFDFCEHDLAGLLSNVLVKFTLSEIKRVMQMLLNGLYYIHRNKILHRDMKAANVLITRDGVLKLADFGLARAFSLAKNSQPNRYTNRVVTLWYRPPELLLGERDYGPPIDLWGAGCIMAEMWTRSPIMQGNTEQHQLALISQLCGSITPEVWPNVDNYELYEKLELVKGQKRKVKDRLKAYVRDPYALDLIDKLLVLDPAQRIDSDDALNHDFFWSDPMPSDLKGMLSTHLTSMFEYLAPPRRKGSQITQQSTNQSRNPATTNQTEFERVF
T4 sequence (O60563 whole entry partner): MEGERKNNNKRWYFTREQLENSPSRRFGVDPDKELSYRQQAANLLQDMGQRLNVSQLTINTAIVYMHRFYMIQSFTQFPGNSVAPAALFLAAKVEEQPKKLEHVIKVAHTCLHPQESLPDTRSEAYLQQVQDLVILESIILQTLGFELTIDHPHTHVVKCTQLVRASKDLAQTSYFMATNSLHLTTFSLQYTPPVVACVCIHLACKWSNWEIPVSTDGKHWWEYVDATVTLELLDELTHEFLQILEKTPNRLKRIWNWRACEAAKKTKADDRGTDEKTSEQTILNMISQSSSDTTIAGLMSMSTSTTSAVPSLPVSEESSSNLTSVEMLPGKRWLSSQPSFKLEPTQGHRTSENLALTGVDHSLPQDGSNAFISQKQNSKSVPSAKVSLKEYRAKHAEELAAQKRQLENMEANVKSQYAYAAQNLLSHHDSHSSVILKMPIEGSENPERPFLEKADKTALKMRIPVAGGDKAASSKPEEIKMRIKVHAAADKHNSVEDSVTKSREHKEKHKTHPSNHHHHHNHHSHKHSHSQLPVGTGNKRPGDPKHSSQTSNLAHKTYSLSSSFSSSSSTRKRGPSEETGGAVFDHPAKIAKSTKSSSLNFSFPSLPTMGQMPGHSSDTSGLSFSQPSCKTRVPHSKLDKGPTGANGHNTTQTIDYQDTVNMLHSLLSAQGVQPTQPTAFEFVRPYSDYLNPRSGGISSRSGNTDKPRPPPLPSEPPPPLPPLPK
Series [8] concerns the target T1, CDK7. Put plainly: CDK kinase screening at 1 μM, CDK7. The class given is biochemical. As to conditions: read-out: Inhibitory rate at 1μM: CDK7. The protocol:
as §3

Another series addresses CDK3 (Homo sapiens, UniProt Q00526). Put plainly: CDK kinase screening at 1 μM, CDK3. As to conditions: read-out: Inhibitory rate at 1μM: CDK3. The series is classed as biochemical. The protocol: as §3
In the next series the target is CDK6 (Homo sapiens, UniProt Q00534). Put plainly: CDK kinase screening at 1 μM, CDK6. The series is classed as biochemical. Particulars: read-out: Inhibitory rate at 1μM: CDK6. The procedure:
as §3

The target in a further series is CDK5 (Homo sapiens, UniProt Q00535). Put plainly: CDK kinase screening at 1 μM, CDK5. The class given is biochemical. Particulars: read-out: Inhibitory rate at 1μM: CDK5. The protocol: as §3
Sequence of CDK5 (Q00535 whole entry): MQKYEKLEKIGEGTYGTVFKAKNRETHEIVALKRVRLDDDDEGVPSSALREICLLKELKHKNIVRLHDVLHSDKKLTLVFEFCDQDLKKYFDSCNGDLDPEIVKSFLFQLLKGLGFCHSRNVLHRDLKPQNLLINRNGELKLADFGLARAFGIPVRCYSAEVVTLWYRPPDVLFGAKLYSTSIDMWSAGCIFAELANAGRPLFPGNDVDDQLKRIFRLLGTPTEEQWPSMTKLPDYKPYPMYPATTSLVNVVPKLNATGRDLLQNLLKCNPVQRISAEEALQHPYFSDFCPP
Sequence of CDK5 (Q15078 99-307 partner limits assumed): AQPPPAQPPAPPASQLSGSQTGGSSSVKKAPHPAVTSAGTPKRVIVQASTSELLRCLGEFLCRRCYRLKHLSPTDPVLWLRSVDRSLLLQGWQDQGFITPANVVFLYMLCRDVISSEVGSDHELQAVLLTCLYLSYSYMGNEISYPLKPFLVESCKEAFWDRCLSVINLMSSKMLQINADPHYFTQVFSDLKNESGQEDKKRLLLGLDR
Series [9] deals with MIA PaCa-2 cells. Put plainly: MTT proliferation assay in MIA PaCa-2 cells. As to conditions: 72 h drug exposure. The class given is cell-based, human. The protocol:
as §1
as §2, with “Then” for “Cells were planted in 96-well plates at a density of 3000–4000 cells per well and incubated at 37 °C in a humidified CO2 incubator for 24 h. Then”

Series [10] deals with T5, CDK1 (Homo sapiens, UniProt P06493). Put plainly: CDK1 kinase IC50, Mobility shift assay. The series is classed as biochemical. The protocol:
as §3

Another series concerns the target CDK8 (Homo sapiens, UniProt P49336). Put plainly: CDK kinase screening at 1 μM, CDK8. The series is classed as biochemical. Particulars: read-out: Inhibitory rate at 1μM: CDK8. The procedure:
as §3

In series [11] the target is T5, CDK1. Put plainly: CDK kinase screening at 1 μM, CDK1. The class given is biochemical. Particulars: read-out: Inhibitory rate at 1μM: CDK1. The procedure: as §3
In a further series the target is CDK9/cyclinT1 (Homo sapiens, UniProt P50750). Put plainly: CDK9/cyclinT1 Lance Ultra Assay, single concentration screen. The class given is biochemical. As to conditions: 50 nM, ATP concentration at Km, read-out: CDK9 inhibitory rate (%) @ 50nM. The procedure: as §3
Sequence of CDK9/cyclinT1 (P50750 whole entry): as the sequence (P50750 whole entry) above
Sequence of CDK9/cyclinT1 (O60563 whole entry partner): as the sequence (O60563 whole entry partner) above
In series [12] the target is T4, CDK9. Put plainly: CDK9 kinase IC50, Mobility shift assay. The class given is biochemical. The procedure: as §3
Series [13] can be described thus: Body weight and H&E pathology of main organs in xenograft mice. The class given is in vivo, BALB/C nude mice. Particulars: after 3-week treatment. The procedure: AsPC-1 (5 × 10^7) cells were injected subcutaneously into 5-week-old female BALB/C nude mice (Beijing Huafukang Bioscience CO. Inc, Beijing, China). After two weeks, mice were omogenizamised and treated with vehicle, gemcitabine (GCTB), or test compound. Blank solvent and test compound was administered by oral gavage (10 ml/kg) with once daily of five days and followed by 2 days off in each week, GCTB was given once a week by 50 mg/kg intraperitoneal injection. Mice were inspected daily for clinical signs, both tumour diameters and body weight were determined 3 times weekly. Tumour volumes were calculated according to the formula “tumor volume (V) = length × width^2/2”. Median TGI values were calculated as follows: TGI = 100 × [1-(Vtreated group at day20-Vtreated group at day1)/(Vvehicle group at day20-Vvehicle group at day1)]. Data were plotted as average with SD in the graphical representation of tumour growth. The p values obtained from the two-way ANOVA analysis. Meanwhile, main organs of mice were collected, formalin-fixed and paraffin-embedded for pathological analysis by H&E dyeing. For drug concentration determination, blood and tumour tissues were collected at indicated time after single administration. Standard curve of test compound was established in the acquisition mode of SIM using a SHIMADZU LC-MS instrument. Blood kept in anticoagulant tube coated with heparin sodium was centrifuged to provide the supernatant, which was followed by added with 3-fold acetonitrile to precipitate plasma protein. After centrifugation at 10 × 10^3 for 5 min, the supernatant was injected directedly into LC-MS instrument for quantification of drug concentration. As for tumour tissues, omogenizationation (Precellys Evolution) was done after weighed accurately and added with 3-fold saline. After centrifugation under same condition as plasma samples, supernatant was separated and injected into LC-MS for quantification.

Series [14] deals with AsPC-1 cell-derived xenograft. Put plainly: AsPC-1 cell-derived xenograft mice model, in vivo efficacy. Further details: species or system BALB/C nude mice. Particulars: GCTB 50 mg/kg intraperitoneal once a week, 3 weeks; vs vehicle group. The procedure:
Synthetic compound was administered as a suspension or solution in the saline with 5% DMSO and 5% Solutol. GCTB was dissolved in saline. All of the experiments were approved by the Institutional Animal Care and Use Committee of Institute of Medicinal Biotechnology. All experiments were carried out under ethics committee–approved protocols and in compliance with the guidelines for the care of laboratory animals of Institute of Medicinal Biotechnology, CAMS.
AsPC-1 (5 × 10^7) cells were injected subcutaneously into 5-week-old female BALB/C nude mice (Beijing Huafukang Bioscience CO. Inc, Beijing, China). After two weeks, mice were omogenizamised and treated with vehicle, gemcitabine (GCTB), or test compound. Blank solvent and test compound was administered by oral gavage (10 ml/kg) with once daily of five days and followed by 2 days off in each week, GCTB was given once a week by 50 mg/kg intraperitoneal injection. Mice were inspected daily for clinical signs, both tumour diameters and body weight were determined 3 times weekly. Tumour volumes were calculated according to the formula “tumor volume (V) = length × width^2/2”. Median TGI values were calculated as follows: TGI = 100 × [1-(Vtreated group at day20-Vtreated group at day1)/(Vvehicle group at day20-Vvehicle group at day1)]. Data were plotted as average with SD in the graphical representation of tumour growth. The p values obtained from the two-way ANOVA analysis. Meanwhile, main organs of mice were collected, formalin-fixed and paraffin-embedded for pathological analysis by H&E dyeing. For drug concentration determination, blood and tumour tissues were collected at indicated time after single administration. Standard curve of test compound was established in the acquisition mode of SIM using a SHIMADZU LC-MS instrument. […] After centrifugation at 10 × 10^3 for 5 min, the supernatant was injected directedly into LC-MS instrument for quantification of drug concentration. […] After centrifugation under same condition as plasma samples, supernatant was separated and injected into LC-MS for quantification.

Series [15] is described as follows: Solubility / precipitation observations. The class given is physicochemical.

One may read the IC50 as the midpoint of a concentration-inhibition curve.

T5 sequence (P06493 whole entry): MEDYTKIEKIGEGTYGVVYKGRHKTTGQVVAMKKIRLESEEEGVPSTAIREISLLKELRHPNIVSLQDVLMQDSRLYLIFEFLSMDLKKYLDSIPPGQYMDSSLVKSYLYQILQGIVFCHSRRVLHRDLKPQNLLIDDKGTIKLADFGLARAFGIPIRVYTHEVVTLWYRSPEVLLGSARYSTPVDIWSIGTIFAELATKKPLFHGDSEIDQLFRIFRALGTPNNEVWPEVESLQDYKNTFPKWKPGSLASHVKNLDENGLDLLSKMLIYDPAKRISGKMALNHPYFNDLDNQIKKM
T5 sequence (P14635 whole entry partner): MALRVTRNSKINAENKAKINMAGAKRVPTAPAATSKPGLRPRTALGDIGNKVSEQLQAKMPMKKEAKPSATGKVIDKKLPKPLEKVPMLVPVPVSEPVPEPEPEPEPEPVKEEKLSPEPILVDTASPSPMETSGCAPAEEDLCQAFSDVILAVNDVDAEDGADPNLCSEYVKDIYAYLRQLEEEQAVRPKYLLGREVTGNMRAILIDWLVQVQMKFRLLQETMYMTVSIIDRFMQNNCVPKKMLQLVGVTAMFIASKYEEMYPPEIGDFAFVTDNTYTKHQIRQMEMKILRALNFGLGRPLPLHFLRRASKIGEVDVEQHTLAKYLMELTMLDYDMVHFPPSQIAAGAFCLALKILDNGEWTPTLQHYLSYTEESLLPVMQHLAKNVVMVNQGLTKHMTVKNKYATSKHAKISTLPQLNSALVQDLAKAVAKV
T1 sequence (P50613 whole entry): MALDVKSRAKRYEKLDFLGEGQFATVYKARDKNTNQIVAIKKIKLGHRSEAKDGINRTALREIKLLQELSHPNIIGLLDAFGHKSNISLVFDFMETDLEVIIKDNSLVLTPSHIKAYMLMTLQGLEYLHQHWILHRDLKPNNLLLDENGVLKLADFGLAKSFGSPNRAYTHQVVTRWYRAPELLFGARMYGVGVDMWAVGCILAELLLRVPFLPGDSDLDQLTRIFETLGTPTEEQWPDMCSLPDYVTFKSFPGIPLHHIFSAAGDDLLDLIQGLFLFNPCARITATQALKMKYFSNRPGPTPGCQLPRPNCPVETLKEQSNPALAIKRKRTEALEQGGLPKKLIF
T1 sequence (P51946 whole entry partner): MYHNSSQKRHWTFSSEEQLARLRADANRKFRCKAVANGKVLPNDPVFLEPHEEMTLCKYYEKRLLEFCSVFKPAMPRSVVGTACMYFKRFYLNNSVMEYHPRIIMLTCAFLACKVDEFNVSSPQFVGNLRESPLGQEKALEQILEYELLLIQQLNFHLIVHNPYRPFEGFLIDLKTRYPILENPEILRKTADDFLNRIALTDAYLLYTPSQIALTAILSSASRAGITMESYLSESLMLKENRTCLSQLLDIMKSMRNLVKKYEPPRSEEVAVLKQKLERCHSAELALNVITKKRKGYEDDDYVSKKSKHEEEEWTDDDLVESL
T1 sequence (P51948 whole entry partner): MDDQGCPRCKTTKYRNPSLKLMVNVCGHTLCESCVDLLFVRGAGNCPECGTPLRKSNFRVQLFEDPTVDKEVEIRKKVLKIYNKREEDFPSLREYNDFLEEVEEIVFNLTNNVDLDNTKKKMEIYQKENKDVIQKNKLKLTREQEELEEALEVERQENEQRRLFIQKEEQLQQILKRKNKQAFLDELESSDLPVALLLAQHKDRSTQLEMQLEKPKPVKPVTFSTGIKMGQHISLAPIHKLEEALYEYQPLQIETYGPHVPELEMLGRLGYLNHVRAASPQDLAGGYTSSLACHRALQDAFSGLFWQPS
Sequence of CDK8 (P49336 whole entry): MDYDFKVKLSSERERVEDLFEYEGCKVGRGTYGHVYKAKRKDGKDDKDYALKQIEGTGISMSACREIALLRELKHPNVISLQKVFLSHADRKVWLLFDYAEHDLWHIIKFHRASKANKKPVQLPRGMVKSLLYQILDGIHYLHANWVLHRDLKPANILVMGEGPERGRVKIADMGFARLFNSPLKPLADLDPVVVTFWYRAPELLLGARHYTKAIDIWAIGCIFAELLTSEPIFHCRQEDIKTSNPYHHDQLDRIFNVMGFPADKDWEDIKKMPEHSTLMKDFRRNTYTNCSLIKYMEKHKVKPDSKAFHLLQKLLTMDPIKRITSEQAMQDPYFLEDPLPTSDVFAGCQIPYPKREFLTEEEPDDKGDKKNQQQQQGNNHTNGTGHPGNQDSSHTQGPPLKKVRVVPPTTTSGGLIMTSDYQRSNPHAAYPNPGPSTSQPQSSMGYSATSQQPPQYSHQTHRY
Sequence of CDK8 (P24863 whole entry partner): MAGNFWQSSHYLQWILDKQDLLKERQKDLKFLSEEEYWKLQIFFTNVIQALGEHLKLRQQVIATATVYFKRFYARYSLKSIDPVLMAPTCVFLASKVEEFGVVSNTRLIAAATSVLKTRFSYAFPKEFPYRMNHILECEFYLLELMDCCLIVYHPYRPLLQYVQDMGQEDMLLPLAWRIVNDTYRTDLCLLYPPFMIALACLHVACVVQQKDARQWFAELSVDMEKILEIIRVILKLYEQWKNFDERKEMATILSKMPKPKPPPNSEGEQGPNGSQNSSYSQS

Consider `Cc1cc(C)nc(NS(=O)(=O)c2ccc(Nc3ncc4cc(C(=O)N(C)C)n(C5CCCC5)c4n3)cc2)n1` [compound 1], for which the IC50 in the series with PANC-1 is 3.68 ± 2.5 µM; at CDK7 [1] it was greater than 10000 nM; in the series on BxPC-3, 0.409 ± 0.06 µM; at CDK2 [5] it was 91.6 nM; on CDK4 [6], 89 nM; with AsPC-1, 2.6 ± 0.997 µM. Besides, the IC50 with MIA PaCa-2 cells [9] (Homo sapiens, MIA PaCa-2, 72 h) was 4.98 ± 2.68 µM; at CDK1 [10], 516 nM; at CDK9 [12] it was 5.6 nM. For the same molecule, the “effect on cell cycle” value in the series on MIA PaCa-2 cells [2] is on record as “G2-arrested effect”. Moreover, the inhibition at 1 µM at CDK2 [3] is 94.4%; on CDK4 [4] it was 89.2%; on CDK9 [7] it was 99%; at CDK7 [8] it was 5.3%; on CDK3, 84.5%; at CDK6 it was 78.1%. For the same molecule, the inhibition at 1 µM at CDK5 is 72.1%; at CDK8, 0.8%; on CDK1 [11], 65.2%. For the same molecule, the inhibition at 0.05 µM on CDK9/cyclinT1 was 98.6%.

`Nc1ccn([C@@H]2O[C@H](CO)[C@@H](O)C2(F)F)c(=O)n1` [GCTB, gemcitabine, reference compound]: the IC50 worked out at 5.79 ± 4.21 µM in the series with PANC-1; 0.388 ± 0.119 µM in the series on BxPC-3; 0.956 ± 0.14 µM with AsPC-1; 1.04 ± 0.27 µM in the series with MIA PaCa-2 cells [9] (Homo sapiens, MIA PaCa-2, 72 h). The “pathological change in main organs (H&E)” value in [13] is given as “no obvious pathological change”. Also, the “tumour growth inhibition (TGI)” value in [14] worked out at 36%.

Take `CN(C)C(=O)c1cc2cnc(Nc3ccc(S(=O)(=O)Nc4ncccn4)cc3)nc2n1C1CCCC1` [compound 2b, 7-Cyclopentyl-N,N-dimethyl-2-((4-(N-(pyrimidin-2-yl)sulfamoyl)phenyl)amino)-7H-pyrrolo[2,3-d]pyrimidine-6-carboxamide]: the “solubility (in words)” value in series [15] was “poor solubility”. The IC50 is 14.3 ± 0.21 µM in the series on MIA PaCa-2 cells [9] and greater than 10 µM in the series with MIA PaCa-2 cells [9] (Homo sapiens, MIA PaCa-2, 72 h). Besides, the inhibition at 0.05 µM at CDK9/cyclinT1 was 98.7%.
